Experimental data taken from patent US9981968B2, “Substituted pyrrolo[2,3-d]pyrimidines for the treatment of cancer and proliferative disorders” (Northwestern University, priority 2013, dated 2018).

These molecules were tested on acute leukemia cell lines (THP-1, K562, Kasumi-1, and U937) (assay: Inhibition of viability of acute leukemia cell lines). Settings: THP-1, K562, Kasumi-1, U937; FIGS. 11-14.
Assay type: cell-based, human
Method: Compounds 381, 383, 409 (as test compounds) and Compound 501 (as a negative control) were administered to a variety of acute leukemia cell lines (THP-1. K562, Kasumi-1, and U937) in order to test their ability to inhibit cell growth as compared to 8-amino adenosine (8NH2-Ado) and 8-chloro adenosine (8Cl-Ado) (as positive controls) as in the previous Examples.

| Structure (SMILES) | cell viability |
| --- | --- |
| COc1cccc(Cn2c(C)c(C)c3c(Cl)ncnc32)c1 [NUCC-0000409] | reduce cell viability significantly |

These molecules were tested on U937 cell lines (assay: Immunoblot of PARP cleavage and cleaved caspase 3). Settings: U937 cell lysates, FIG. 17.
Assay type: cell-based, human
Method: FIG. 17. Immunoblot of cell lysates from U937 cell lines treated with Compounds 381, 383, 409 (as test compounds) and Compound 501 (as a negative control) as compared to 8-amino adenosine (8NH2-Ado) and 8-chloro adenosine (8Cl-Ado) (as positive controls). The impact of the compounds on proteins associated with cell death was assessed via performing an immunoblot. (See FIG. 17). PARP cleavage indicated activation of the caspase cascade and cell death by induction of apoptosis. Similarly detection of cleaved caspase 3 indicated activation of caspase activity and cell death by apoptosis. GAPDH was included as a loading control to indicate approximately equal loading of protein.

| Structure (SMILES) | induction of apoptosis (PARP cleavage, cleaved caspase 3) |
| --- | --- |
| Nc1ncnc2c1nc(Cl)n2[C@@H]1O[C@H](CO)[C@@H](O)[C@H]1O [Compound 8-Cl-Ado, 8-chloro adenosine] | Induction of apoptosis was observed |
| Nc1ncnc2c1nc(N)n2[C@@H]1O[C@H](CO)[C@@H](O)[C@H]1O [Compound 8-NH2-Ado, 8-amino adenosine] | Induction of apoptosis was observed |

What follows are molecules tested on MM.1S cells (assay: MTS CellTiter 96 cell proliferation assay, MM.1S). Settings: 0.1-10 μM, MTS assay, FIG. 1, compared with 8-amino adenosine.
Assay type: cell-based, human
Method: Cell viability was assessed by MTS assay as follows.
The MTS CellTiter 96 assay is a colorimetric method to assess the number of viable cells based on the conversion of a tetrazolium compound (MTS) to a formazan product by the mitochondrial dehydrogenase enzyme of the cells. This assay is used to determine the number of viable cells remaining following a drug treatment in comparison to the number of viable cells that are only treated with the drug vehicle (control cells). The amount of formazan product in the control cells is normalized to 100% and the amount of formazan in the drug treated cells is expressed as a percentage of control. This is used to generate dose response curve and estimate the drug concentration that produced a 50% decrease in the number of viable cells.

| Structure (SMILES) | decreasing cell proliferation |
| --- | --- |
| Cc1ncnc2c1c(C(F)(F)F)cn2CC1CCN(C(=O)OC(C)(C)C)CC1 [NUCC-0000482] | not effective in decreasing cell proliferation |
| Cc1ncnc2c1c(C(F)(F)F)cn2CC1CCNCC1 [NUCC-0000501] | not effective in decreasing cell proliferation |

Same assay, conditions: Homo sapiens, MM1.S, MTS cell proliferation assay, read-out: Estimated IC50

| Structure (SMILES) | IC50 |
| --- | --- |
| Cc1c(C)n(Cc2ccccc2)c2ncnc(Cl)c12 [NUCC-0000280] | 5 µM |
| FC(F)(F)c1cn(Cc2ccccc2)c2ncnc(Cl)c12 [NUCC-0000315] | 3 µM |
| CC(C)(C)OC(=O)N1CCC(Cn2cc(C(F)(F)F)c3c(Cl)ncnc32)CC1 [NUCC-0000357] | 1.5 µM |
| FC(F)(F)c1cn(CCN2CCCC2)c2ncnc(Cl)c12 [NUCC-0000358] | 3 µM |
| Cc1c(C)n(CC2CCCCC2)c2ncnc(Cl)c12 [NUCC-0000359] | 10 µM |
| COCCn1c(C)c(C)c2c(Cl)ncnc21 [NUCC-0000361] | 10 µM |
| Cc1c(C)n(Cc2ccccc2)c2ncnc(N)c12 [NUCC-0000362] | 10 µM |
| Cc1c(C)n(Cc2ccc(F)cc2)c2ncnc(N)c12 [NUCC-0000375] | 10 µM |
| Cc1c(C)n(CCN2CCOCC2)c2ncnc(Cl)c12 [NUCC-0000413] | 5 µM |
| Cc1ncnc2c1cc(C)n2C1O[C@H](CO)[C@@H](O)[C@H]1O (stereo partly shown) [NUCC-0000477] | 8 µM |
| Clc1nc(Cl)c2ccn(CC3CCNCC3)c2n1 [NUCC-0000575] | 3 µM |
| O=C(N1CCC(Cn2cc(C(F)(F)F)c3c(Cl)ncnc32)CC1)C(F)(F)F [NUCC-0000593] | 5 µM |
| CC(=O)N1CCC(Cn2ccc3c(Cl)nc(Cl)nc32)CC1 [NUCC-0000595] | 3 µM |
| Cc1cn(CC2CCN(C(=O)OC(C)(C)C)CC2)c2ncnc(Cl)c12 [NUCC-0054036] | 2 µM |
| COc1cccc(Cn2cc(C(F)(F)F)c3c(Cl)ncnc32)c1 [NUCC-0054037] | 2 µM |
| FC(F)(F)c1c[nH]c2ncnc(Cl)c12 [NUCC-0054043] | 7 µM |

Results, then the molecule that gave them:

| IC50 | Structure (SMILES) |
| --- | --- |
| 10 µM | Clc1ncnc2c1c1c(n2Cc2ccccc2)CCCC1 [NUCC-0000308] |
| 5 µM | Fc1ccc(Cn2cc(C(F)(F)F)c3c(Cl)ncnc32)cc1 [NUCC-0000325] |
| 3 µM | FC(F)(F)c1cn(Cc2cccnc2)c2ncnc(Cl)c12 [NUCC-0000326] |
| 5 µM | FC(F)(F)c1cn(Cc2ccncc2)c2ncnc(Cl)c12 [NUCC-0000327] |
| 3 µM | FC(F)(F)c1cn(CC2CCOCC2)c2ncnc(Cl)c12 [NUCC-0000329] |
| 7 µM | Cc1c(C)n(Cc2ccc(F)cc2)c2ncnc(Cl)c12 [NUCC-0000360] |
| 10 µM | Cc1c(C)n(Cc2ccco2)c2ncnc(Cl)c12 [NUCC-0000363] |
| 1.5 µM | COc1cccc(Cn2c(C)c(C)c3c(Cl)ncnc32)c1 [NUCC-0000409] |
| 2.5 µM | Fc1ccc(Cn2c3c(c4c(Cl)ncnc42)CCCC3)cc1 [NUCC-0000412] |
| 10 µM | NC(=O)N1CCC(Cn2cc(C(F)(F)F)c3c(Cl)ncnc32)CC1 [NUCC-0000469] |
| 10 µM | FC(F)(F)c1cn(CC2CCNCC2)c2ncncc12 [NUCC-0000470] |
| 3 µM | Nc1nc(Cl)c2c(C(F)(F)F)cn(CC3CCNCC3)c2n1 [NUCC-0000570] |
| 5 µM | CC(C)(C)OC(=O)N1CCC(Cn2ccc3c(Cl)nc(Cl)nc32)CC1 [NUCC-0000571] |
| 3 µM | CS(=O)(=O)N1CCC(Cn2cc(C(F)(F)F)c3c(Cl)nc(N)nc32)CC1 [NUCC-0000576] |
| 5 µM | CS(=O)(=O)N1CCC(Cn2ccc3c(Cl)nc(Cl)nc32)CC1 [NUCC-0000577] |
| 5 µM | CS(=O)(=O)N1CCC(Cn2ccc3c(Cl)ncnc32)CC1 [NUCC-0000578] |
| 2 µM | CS(=O)(=O)N1CCC(Cn2cc(C(F)(F)F)c3c(Br)ncnc32)CC1 [NUCC-0000598] |
| 5 µM | OCCOCn1cc(C(F)(F)F)c2c(Cl)ncnc21 [NUCC-0050715] |
| 2 µM | COc1ccc(Cn2cc(C(F)(F)F)c3c(Cl)ncnc32)cc1 [NUCC-0054038] |
| 1 µM | Cc1cn(CC2CCNCC2)c2ncnc(Cl)c12 [NUCC-0054039] |
| 3 µM | Cc1cn(CC2CCN(S(C)(=O)=O)CC2)c2ncnc(Cl)c12 [NUCC-0054040] |
| > 10 µM | FC(F)(F)c1cc2c(Cl)ncnc2n1CC1CCNCC1 [NUCC-0054150] |
| > 10 µM | CS(=O)(=O)N1CCC(Cn2c(C(F)(F)F)cc3c(Cl)ncnc32)CC1 [NUCC-0054151] |

Same assay, conditions: MTS cell proliferation assay

| Estimated IC50 | Structure (SMILES) |
| --- | --- |
| In- active | Cc1ncnc2c1c(C(F)(F)F)cn2CC1CCN(C(=O)OC(C)(C)C)CC1 [NUCC-0000482] |
| In- active | Cc1ncnc2c1c(C(F)(F)F)cn2CC1CCNCC1 [NUCC-0000501] |
